# Measured values as given in publication PMC10917278, “Structural insights into the modulation Of SOD1 aggregation By a fungal metabolite Phialomustin-B: Therapeutic potential in ALS” (PLOS ONE, 2024).
# Target: T1, SOD1^A4V (Homo sapiens, UniProt P00441, A5V)
# T1 construct: The full-length constructs of SOD1-wild type (aa: 1–145) and its corresponding SOD1 disease mutant, SOD1^A4V; His-tag (cleaved yes); made in house; host or cells: E. coli BL21 DE3
# Experiment: Thioflavin T (ThT) fluorescence aggregation assay, SOD1^A4V
# Format: biochemical
# Conditions: for kapp / t50 / tlag: 37 °C, reduced conditions
# Protocol: Following the co-crystal structure elucidation of SOD1 in complex with PB, we wanted to identify the effect of PB on the aggregation of SOD1^WT and its disease mutant, SOD1^A4V. A comprehensive analysis of the anti-aggregation propensity of PB was performed using a ThT-based fluorescence assay and analytical size-exclusion based chromatography (SEC) assay. We used Thioflavin-T, a β-sheet formation reporter, to assess the aggregation of SOD1. Time lag (tlag) is a kinetic parameter used to evaluate the lag phase of fibrillation. Fibril elongation was used to evaluate the rate of β sheet formation. […] Similar effects on lag time are also observed for SOD1^A4V. […] Moreover, ThT-based aggregation assays were also performed for the PB site-specific mutants, SOD1^A123F, SOD1^K9F, SOD1^L42R, and SOD1^G10P (S4a, S4c, S4e and S4g Fig). As expected based on the abovementioned MST results, the aggregation analysis is inconclusive as these mutants, which correspond to the ligand binding residues, cause a loss of protein-ligand interactions.
# Fig 6 Aggregation studies of metallated and reduced SOD1^WT and SOD1^A4V on treatment with PB. ThT fluorescence was monitored during the co-incubation of metallated SOD1^WT (50 μM) (a) or SOD1^A4V (50 μM) (b) with PB at 1:30 molar ratio at 37 °C with continuous shaking, under reduced conditions. The values were normalized to the maximal ThT intensity elicited by SOD1^WT or SOD1^A4V and fitted to a Boltzmann sigmoidal equation. The control and PB-treated species were compared to analyse the effects of PB on the aggregation of SOD1^WT and SOD1^A4V. Error bars indicate the standard deviation. Analytical SEC of metallated SOD1^WT (50 μM) (c) and SOD1^A4V (50 μM) (d) with PB were analyzed under reducing conditions before and after 24 hrs and 48 hrs incubation at 37 °C. The first peak eluting at the volume was denoted as oligomerized SOD1^WT/SOD1^A4V (L). The second, third, and fourth peaks were calculated as trimer (T), dimer (D), and monomer (M) species of SOD1^WT/SOD1^A4V running at 14.5 ml, 15.7 ml, and 16.5 ml, respectively. […] The monomer (M), dimer (D), trimer (T), and large aggregate (L) species are shown as green, purple, red, and black dotted lines, respectively. All the experiments were performed for n = 3 biological replicates.
# Fig 7 Aggregation studies of de-metallated and reduced SOD1^WT and SOD1^A4V on treatment with PB. ThT fluorescence was monitored during the co-incubation of de-metallated SOD1^WT (50 μM) (a) or SOD1^A4V (50 μM) (b) with PB at 1:30 molar ratio at 37 °C with continuous shaking, under reduced conditions. The values were normalized to the maximal ThT intensity elicited by SOD1^WT or SOD1^A4V and fitted to a Boltzmann sigmoidal equation. The control and PB-treated species were compared to analyse PB’s effects on the aggregation of SOD1^WT and SOD1^A4V. Analytical SEC of de-metallated SOD1^WT (50 μM) (a) and SOD1^A4V (50 μM) (b) with PB were analysed under reducing conditions before and after 24 hrs and 48 hrs incubation at 37 °C. The first peak eluting at the volume was denoted as oligomerized SOD1^WT (L) runs at 9.2 ml. The second, third, and fourth peaks were calculated as trimer (T), dimer (D), and monomer (M) species of SOD1^WT/SOD1^A4V running at 14.5 ml, 15.7 ml, and 16.5 ml, respectively. […] In the case of SOD1^A4V, PB eliminates the formation of large aggregates compared to the control (48hrs-EC, EC represents control with EDTA). The monomer (M), dimer (D), trimer (T), and large aggregate (L) species are shown as green, purple, red, and black dotted lines, respectively. All the experiments were performed for n = 3 biological replicates.
# Aggregation assays were performed on SOD1^WT, the disease mutant A4V, and ligand-binding site-specific mutants to check the anti-aggregation activity of PB on the former. […] The ThT assay for the SOD1 aggregation was carried out per the recently published protocol. […]
# [1] = De-metallated (5 mM EDTA) SOD1^A4V 50 μM with PB at 1:30 molar ratio
# [2] = Metallated SOD1^A4V 50 μM with PB at 1:30 molar ratio
# T1 sequence (P00441 whole entry A5V): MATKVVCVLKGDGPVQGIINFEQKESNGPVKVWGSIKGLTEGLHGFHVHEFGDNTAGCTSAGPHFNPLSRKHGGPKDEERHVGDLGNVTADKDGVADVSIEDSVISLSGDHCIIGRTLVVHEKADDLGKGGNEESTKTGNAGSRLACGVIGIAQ
smiles,measurement,setting,value
"CCCC[C@H](C)/C=C(C)/C=C/C(=O)O [PB, (S, 2E, 4E)-4,6-dimethyldeca-2,4-dienoic acid]",kapp,[1],0.05 h⁻¹
same,t50,[1],13.57 h
same,tlag,[1],13.55 h
same,kapp,[2],0.07 h⁻¹
same,t50,[2],10.45 h
same,tlag,[2],10.44 h
same,ThT signal of SOD1^A4V aggregation,"Metallated SOD1^A4V 50 μM, PB 1:30, versus control",drastic reduction in the ThT signal
